Measurements from PMC4131899 (Biochemistry, 2014).
Where a chain is given by its changes, count along the chain named. Where two headings read alike, the source gives them in different places.

Key:
[1] = tested on: P450 (CYP2B4); experiment: Binding of redox mediator dyes to P450; conditions: data not shown
[2] = molecular target: T1, wild type (WT) CYP2B4 (Oryctolagus cuniculus, UniProt P00178); experiment: Substrate binding
T1 sequence (P00178 1-491): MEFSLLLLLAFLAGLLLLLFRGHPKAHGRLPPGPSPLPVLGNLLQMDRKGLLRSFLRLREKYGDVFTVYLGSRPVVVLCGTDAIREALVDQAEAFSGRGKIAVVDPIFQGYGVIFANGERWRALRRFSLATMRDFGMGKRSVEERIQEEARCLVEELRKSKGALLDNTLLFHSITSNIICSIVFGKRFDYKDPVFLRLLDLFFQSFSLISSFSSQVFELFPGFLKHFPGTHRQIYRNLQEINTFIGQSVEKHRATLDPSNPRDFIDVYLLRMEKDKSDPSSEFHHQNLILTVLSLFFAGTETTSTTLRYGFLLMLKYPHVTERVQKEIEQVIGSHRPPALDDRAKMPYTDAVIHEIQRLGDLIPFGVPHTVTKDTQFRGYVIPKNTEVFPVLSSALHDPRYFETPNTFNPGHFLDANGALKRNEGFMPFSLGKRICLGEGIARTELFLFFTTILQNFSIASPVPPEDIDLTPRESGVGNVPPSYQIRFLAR

[3] = molecular target: T2, WT CYP2B4 (Oryctolagus cuniculus, UniProt P00178); conditions: 1 mM benzphetamine, 20 °C
T2 sequence (P00178 1-491): T1 sequence (P00178 1-491)

[4] = molecular target: T3, WT CYP2B4 (Oryctolagus cuniculus, UniProt P00178); experiment: N-demethylation of benzphetamine in purified reconstituted system; assay type: biochemical, rabbit; conditions: wild type; 1 mM benzphetamine, varied reductase
T3 sequence (P00178 1-491): T1 sequence (P00178 1-491)
T3 sequence (P00388 1-678 partner): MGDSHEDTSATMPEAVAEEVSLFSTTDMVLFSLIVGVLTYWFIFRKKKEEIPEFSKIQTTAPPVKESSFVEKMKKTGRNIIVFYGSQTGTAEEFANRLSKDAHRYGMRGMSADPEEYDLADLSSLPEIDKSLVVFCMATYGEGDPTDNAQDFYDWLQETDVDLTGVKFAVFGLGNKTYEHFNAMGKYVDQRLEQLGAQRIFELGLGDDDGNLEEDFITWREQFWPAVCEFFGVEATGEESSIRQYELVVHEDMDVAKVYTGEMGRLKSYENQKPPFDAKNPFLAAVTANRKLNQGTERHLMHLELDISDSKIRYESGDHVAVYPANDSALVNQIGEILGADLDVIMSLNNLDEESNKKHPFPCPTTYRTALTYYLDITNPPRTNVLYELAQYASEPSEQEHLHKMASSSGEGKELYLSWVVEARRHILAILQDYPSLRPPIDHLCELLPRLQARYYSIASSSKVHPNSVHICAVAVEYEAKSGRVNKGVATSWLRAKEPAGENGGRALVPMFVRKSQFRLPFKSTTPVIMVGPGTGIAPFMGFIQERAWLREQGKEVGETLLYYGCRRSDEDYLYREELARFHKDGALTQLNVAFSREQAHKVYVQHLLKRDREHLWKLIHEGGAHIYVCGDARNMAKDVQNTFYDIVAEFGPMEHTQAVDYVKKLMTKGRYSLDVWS

[5] = molecular target: T4, CYP2B4 F429H (Oryctolagus cuniculus, UniProt P00178, F429H)
T4 sequence (P00178 1-491 F429H): T1 sequence (P00178 1-491) with F429H
T4 sequence (P00388 1-678 partner): T3 sequence (P00388 1-678 partner)

[6] = molecular target: T5, CYP2B4 F429H (Oryctolagus cuniculus, UniProt P00178, F429H); remark: listed apart in the source
T5 sequence (P00178 1-491 F429H): T1 sequence (P00178 1-491) with F429H

[7] = molecular target: T5, CYP2B4 F429H; experiment: biochemical
[8] = molecular target: T5, CYP2B4 F429H; conditions: 1 mM benzphetamine, 20 °C

## Nc1ccc2nc3ccc(N)cc3[n+](-c3ccccc3)c2c1.[Cl-] [phenosafranin]
[1]
  spectral change on addition of dye to P450: did not cause any spectral change

## c1ccc(C[n+]2ccc(-c3cc[n+](Cc4ccccc4)cc3)cc2)cc1 [benzyl viologen]
[1]
  spectral change on addition of dye to P450: did not cause any spectral change

## C[C@@H](Cc1ccccc1)N(C)Cc1ccccc1 [benzphetamine]
[2]; Ks, WT, no reductase, no cyt b5, 15 °C
  Kd: 250 ± 7 µM
[2]; Ks, WT, no reductase, no cyt b5, 30 °C
  Kd: 80 ± 20 µM
[2]; Ks, WT, no reductase, with cyt b5, 15 °C
  Kd: 58 ± 6 µM
[2]; Ks, WT, with reductase, no cyt b5, 15 °C
  Kd: 220 ± 10 µM
[3]
  increase in Em on binding of benzphetamine: 88 mV
[3]; pH 7.4
  redox potential Em with BP: –244 ± 7 mV
[4]
  Vmax (N-demethylation of BP): 49 ± 5 nmol of product min^–1 (nmol of 450)^−1
[5]; F429H vs wild type
  activity retained relative to wild type (N-demethylation of BP): 3.6%
[5]; F429H, 1 mM benzphetamine, varied reductase
  Vmax (N-demethylation of BP): 1.60 ± 0.05 nmol of product min^–1 (nmol of 450)^−1
[6]; 30 °C, F429H vs WT
  decreased affinity of mutant vs WT: 5 fold
[6]; F429H, with vs without cyt b5
  enhancement of binding by cyt b5: 5–6 fold
[7]; Ks, F429H, no reductase, no cyt b5, 15 °C
  Kd: 900 ± 200 µM
[7]; Ks, F429H, no reductase, no cyt b5, 30 °C
  Kd: 390 ± 80 µM
[7]; Ks, F429H, no reductase, with cyt b5, 15 °C
  Kd: 150 ± 60 µM
[7]; Ks, F429H, with reductase, no cyt b5, 15 °C
  Kd: 830 ± 220 µM
[8]
  increase in Em on binding of benzphetamine: 15 mV
[8]; pH 7.4
  redox potential Em with BP: –230 ± 8 mV

## Cc1cc(C(C)(C)C)c(O)c(C(C)(C)C)c1 [butylated hydroxytoluene, 2,6-di-tert-butyl-4-methylphenol]
[2]
  Kd: 0.31 ± 0.14 µM
[7]
  Kd: 1.82 ± 0.24 µM
